Data from US20250360167A1 (Keryx Biopharmaceuticals, Inc., priority 2013, published 2025).

Test: BET active surface area
Type: physicochemical
Text: BET theory explains the physical adsorption of gas molecules onto a solid surface. The theory serves as the basis for the measurement of the specific surface area of a material. This theory allows the calculation of surface areas of materials in a very accurate manner and is thus capable of distinguishing differences between separate preparations of what would otherwise appear to be the same material. For example, activated carbon is a form of carbon that has been processed to make it extremely porous and thus to have a very large surface area. Activated carbon has been experimentally determined, using calculations derived from BET theory, to have a surface area of around 3000 m^2 g^−1.

[1] = Table 1, one value given per pair of samples

| SMILES | BET Active Surface Area [1] | BET Active Surface Area (Tables 2 and 3) |
| --- | --- | --- |
| O=C([O-])CC(O)(CC(=O)[O-])C(=O)[O-].[Fe+3] [RFS-12-1] | 0.61 | 0.61 m^2/g |
| O=C([O-])CC(O)(CC(=O)[O-])C(=O)[O-].[Fe+3] [STM-182-1] | 19.85 | – |
